Source: patent US20260015350A1, “AZAQUINAZOLINE PAN-KRAS INHIBITORS” (Mirati Therapeutics, Inc., priority 2022, published 2026)

Experiments:
KRas^WT = biological target: T1, KRas^WT (Homo sapiens, UniProt P01116); experiment: KRas binding assay (TR-FRET tracer displacement), KRas WT; settings: for IC50: TR-FRET tracer displacement, KRas WT; for inhibition at 0.01 µM: single point, 10 nM compound, TR-FRET
T1 construct: Biotinylated KRas (corresponding to amino acids 1-169, produced at Accelegan Inc.); biotin (biotinylated); purchased Accelegan Inc

[1] = system: KRas-mediated phosphorylation of ERK in HCT116 cells; experiment: Inhibition of KRas-mediated phosphorylation of ERK (Cisbio HTRF pERK), HCT116 cells; assay type: cell-based; settings: Homo sapiens; for inhibition at 0.1 µM: HCT-116, 3 h, single point, 100 nM compound, 3 hrs; for IC50: HCT-116, HTRF pERK
Summary of the method: (§1)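 Cells were seeded at 6,000 per well and treated for 3 hrs with compound in a 10-dose, 3-fold series from 10 uM (0.8% final DMSO), with 0.2 uM Trametinib as Min control. Lysates made at 4° C over 40 mins were incubated 2 hrs at room temperature with d2- and Cryptate-labelled antibodies, then read by HTRF.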

[2] = system: KRas-mediated phosphorylation of ERK in H460 cells; experiment: Inhibition of KRas-mediated phosphorylation of ERK (Cisbio HTRF pERK), H460 cells; assay type: cell-based; settings: Homo sapiens; for inhibition at 0.1 µM: NCI-H460, 3 h, single point, 100 nM compound, 3 hrs; for IC50: NCI-H460, HTRF pERK
Summary of the method: (§2)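 Using 6,000 cells per well, compounds are applied for 3 hrs and cells then lysed at 4° C with shaking for 40 mins. Phospho-ERK is measured by HTRF after 2 hrs of lysate incubation with the d2/Cryptate antibody mixture.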

[3] = system: KRas-mediated phosphorylation of ERK in H727 cells; experiment: Inhibition of KRas-mediated phosphorylation of ERK (Cisbio HTRF pERK), H727 cells; assay type: cell-based; settings: Homo sapiens, NCI-H727, H727 cells; HTRF pERK
Summary of the method: as §2

KRas^G12D = biological target: T2, KRas^G12D (Homo sapiens, UniProt P01116, G12D); experiment: KRas binding assay (TR-FRET tracer displacement), KRas G12D
T2 construct: Biotinylated KRas (corresponding to amino acids 1-169, produced at Accelegan Inc.); biotin (biotinylated); purchased Accelegan Inc

KRas^G12R = biological target: T3, KRas^G12R (Homo sapiens, UniProt P01116, G12R); experiment: KRas binding assay (TR-FRET tracer displacement), KRas G12R
T3 construct: Biotinylated KRas (corresponding to amino acids 1-169, produced at Accelegan Inc.); biotin (biotinylated); purchased Accelegan Inc

KRas^Q61H = biological target: T4, KRas^Q61H (Homo sapiens, UniProt P01116, Q61H); experiment: KRas binding assay (TR-FRET tracer displacement), KRas Q61H; settings: for IC50: TR-FRET tracer displacement, KRas Q61H; for inhibition at 0.01 µM: single point, 10 nM compound, TR-FRET
T4 construct: Biotinylated KRas (corresponding to amino acids 1-169, produced at Accelegan Inc.); biotin (biotinylated); purchased Accelegan Inc

KRas^G12S = biological target: T5, KRas^G12S (Homo sapiens, UniProt P01116, G12S); experiment: KRas binding assay (TR-FRET tracer displacement), KRas G12S; settings: for IC50: TR-FRET tracer displacement, KRas G12S; for inhibition at 0.01 µM: single point, 10 nM compound, TR-FRET
T5 construct: Biotinylated KRas (corresponding to amino acids 1-169, produced at Accelegan Inc.); biotin (biotinylated); purchased Accelegan Inc

KRas^G12V = biological target: T6, KRas^G12V (Homo sapiens, UniProt P01116, G12V); experiment: KRas binding assay (TR-FRET tracer displacement), KRas G12V
T6 construct: Biotinylated KRas (corresponding to amino acids 1-169, produced at Accelegan Inc.); biotin (biotinylated); purchased Accelegan Inc

KRas^G12C = biological target: T7, KRas^G12C (Homo sapiens, UniProt P01116, G12C); experiment: KRas binding assay (TR-FRET tracer displacement), KRas G12C; settings: for IC50: TR-FRET tracer displacement, KRas G12C; for inhibition at 0.01 µM: single point, 10 nM compound, TR-FRET
T7 construct: Biotinylated KRas (corresponding to amino acids 1-169, produced at Accelegan Inc.); biotin (biotinylated); purchased Accelegan Inc

[4] = system: KRas-mediated phosphorylation of ERK in H358 cells; experiment: Inhibition of KRas-mediated phosphorylation of ERK (Cisbio HTRF pERK), H358 cells; assay type: cell-based; settings: Homo sapiens; for inhibition at 0.1 µM: NCI-H358, 3 h, single point, 100 nM compound, 3 hrs; for IC50: NCI-H358, HTRF pERK
Summary of the method: as §2

[5] = system: KRas-mediated phosphorylation of ERK in AsPC-1 cells; experiment: Inhibition of KRas-mediated phosphorylation of ERK (Cisbio HTRF pERK), AsPC-1 cells; assay type: cell-based; settings: Homo sapiens, ASPC1, AsPC-1 cells; HTRF pERK
Summary of the method: as §2

[6] = system: KRas-mediated phosphorylation of ERK in PSN1 cells; experiment: Inhibition of KRas-mediated phosphorylation of ERK (Cisbio HTRF pERK), PSN1 cells; assay type: cell-based; settings: Homo sapiens
Summary of the method: (§3)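 Overnight culture at 37° C./5% CO2 in RPMI containing 10% FBS, seeded 6,000 cells per well, preceded the assay. A covered 4-hour incubation at room temperature followed, then HTRF signal for phosphorylated ERK was measured.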

KRas^G13D = biological target: T8, KRas^G13D (Homo sapiens, UniProt P01116, G13D); experiment: KRas binding assay (TR-FRET tracer displacement), KRas G13D; settings: for IC50: TR-FRET tracer displacement, KRas G13D; for inhibition at 0.01 µM: single point, 10 nM compound, TR-FRET
T8 construct: Biotinylated KRas (corresponding to amino acids 1-169, produced at Accelegan Inc.); biotin (biotinylated); purchased Accelegan Inc

[7] = system: KRas-mediated phosphorylation of ERK in A549 cells; experiment: Inhibition of KRas-mediated phosphorylation of ERK (Cisbio HTRF pERK), A549 cells; assay type: cell-based; settings: Homo sapiens; for inhibition at 0.1 µM: A549, 3 h, single point, 100 nM compound, 3 hrs; for IC50: HTRF pERK
Summary of the method: as §1

[8] = system: KRas-mediated phosphorylation of ERK in MKN1 cells; experiment: Inhibition of KRas-mediated phosphorylation of ERK (Cisbio HTRF pERK), MKN1 cells; assay type: cell-based; settings: Homo sapiens, MKN-1
Summary of the method: as §3

KRas^G12A = biological target: T9, KRas^G12A (Homo sapiens, UniProt P01116, G12A); experiment: KRas binding assay (TR-FRET tracer displacement), KRas G12A; settings: for IC50: TR-FRET tracer displacement, KRas G12A; for inhibition at 0.01 µM: single point, 10 nM compound, TR-FRET
T9 construct: Biotinylated KRas (corresponding to amino acids 1-169, produced at Accelegan Inc.); biotin (biotinylated); purchased Accelegan Inc
T9 sequence (P01116 1-169 isoform P01116-2 G12A): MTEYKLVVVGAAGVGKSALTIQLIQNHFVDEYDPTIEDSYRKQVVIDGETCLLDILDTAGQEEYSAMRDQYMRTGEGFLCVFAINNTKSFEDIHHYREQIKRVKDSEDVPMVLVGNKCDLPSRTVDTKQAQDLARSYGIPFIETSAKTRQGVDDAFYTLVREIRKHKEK

T7 sequence (P01116 1-169 isoform P01116-2 G12C): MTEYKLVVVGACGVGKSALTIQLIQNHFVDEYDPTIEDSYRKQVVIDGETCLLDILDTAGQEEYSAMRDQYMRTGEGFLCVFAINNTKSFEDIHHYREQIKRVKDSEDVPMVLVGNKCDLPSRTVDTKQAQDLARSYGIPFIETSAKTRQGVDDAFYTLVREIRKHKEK
T4 sequence (P01116 1-169 isoform P01116-2 Q61H): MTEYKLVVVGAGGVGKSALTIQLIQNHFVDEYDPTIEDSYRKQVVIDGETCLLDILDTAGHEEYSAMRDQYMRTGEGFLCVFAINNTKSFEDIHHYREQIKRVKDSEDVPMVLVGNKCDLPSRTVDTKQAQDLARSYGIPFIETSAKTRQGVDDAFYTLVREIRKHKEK
T8 sequence (P01116 1-169 isoform P01116-2 G13D): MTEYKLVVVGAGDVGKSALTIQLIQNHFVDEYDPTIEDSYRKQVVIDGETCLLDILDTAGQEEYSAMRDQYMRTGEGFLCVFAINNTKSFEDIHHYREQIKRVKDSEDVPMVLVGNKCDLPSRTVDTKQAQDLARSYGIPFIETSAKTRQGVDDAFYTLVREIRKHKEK
T5 sequence (P01116 1-169 isoform P01116-2 G12S): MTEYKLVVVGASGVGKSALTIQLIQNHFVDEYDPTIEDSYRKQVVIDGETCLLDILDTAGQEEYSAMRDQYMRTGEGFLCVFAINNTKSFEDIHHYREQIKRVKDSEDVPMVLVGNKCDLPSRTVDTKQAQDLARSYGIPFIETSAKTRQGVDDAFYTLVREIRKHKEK
T6 sequence (P01116 1-169 isoform P01116-2 G12V): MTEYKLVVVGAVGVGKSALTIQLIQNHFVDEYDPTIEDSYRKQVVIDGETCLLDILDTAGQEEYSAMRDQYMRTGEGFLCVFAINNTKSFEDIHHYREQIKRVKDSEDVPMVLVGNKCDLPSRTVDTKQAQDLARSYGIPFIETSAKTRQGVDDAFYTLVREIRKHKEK
T1 sequence (P01116 1-169 isoform P01116-2): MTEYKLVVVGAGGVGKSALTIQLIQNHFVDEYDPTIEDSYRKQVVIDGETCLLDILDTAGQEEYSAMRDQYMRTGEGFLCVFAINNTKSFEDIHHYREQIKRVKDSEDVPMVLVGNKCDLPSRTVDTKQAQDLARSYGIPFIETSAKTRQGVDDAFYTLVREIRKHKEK
T2 sequence (P01116 1-169 isoform P01116-2 G12D): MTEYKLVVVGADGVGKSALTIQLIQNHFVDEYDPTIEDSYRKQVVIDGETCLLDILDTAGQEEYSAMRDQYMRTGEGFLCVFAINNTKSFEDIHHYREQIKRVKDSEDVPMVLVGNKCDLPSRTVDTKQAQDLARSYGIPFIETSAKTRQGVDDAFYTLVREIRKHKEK
T3 sequence (P01116 1-169 isoform P01116-2 G12R): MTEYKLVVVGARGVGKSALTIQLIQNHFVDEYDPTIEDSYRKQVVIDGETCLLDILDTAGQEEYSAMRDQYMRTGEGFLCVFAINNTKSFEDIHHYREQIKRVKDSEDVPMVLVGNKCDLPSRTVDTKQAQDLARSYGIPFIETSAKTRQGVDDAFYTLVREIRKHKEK

SMILES | IC50 (KRas^WT) | IC50 [1] | IC50 [2] | IC50 [3] | IC50 (KRas^G12D) | IC50 (KRas^G12R) | IC50 (KRas^Q61H) | IC50 (KRas^G12S) | IC50 (KRas^G12V) | IC50 (KRas^G12C) | IC50 [4] | IC50 [5] | IC50 [6] | IC50 (KRas^G13D) | IC50 [7] | IC50 [8] | IC50 (KRas^G12A) | inhibition at 0.1 µM [1] | inhibition at 0.1 µM [4] | inhibition at 0.1 µM [7] | further results
Oc1cc(-c2ncc3c(N4CCCC5(CCO5)C4)nc(OC[C@@]45CCCN4C[C@H](F)C5)nc3c2F)c2c(Cl)c(F)ccc2c1 (stereo partly drawn) [Example 773, 5-chloro-6-fluoro-4-(8-fluoro-2-(((2R,7aS)-2-fluorotetrahydro-1H-pyrrolizin-7a(5H)-yl)methoxy)-4-(1-oxa-6-azaspiro[3.5]nonan-6-yl)pyrido[4,3-d]pyrimidin-7-yl)naphthalen-2-ol] |  | 18 nM | 10 nM | 8 nM | 3 nM | 2 nM |  |  | < 2 nM |  | 3 nM | 7 nM | 2680 nM |  | 8 nM | 4 nM |  | 90% | 99% | 97% | inhibition at 0.01 µM (KRas^WT): 90%; inhibition at 0.1 µM [2]: 96%; inhibition at 0.01 µM (KRas^Q61H): 95%; inhibition at 0.01 µM (KRas^G12S): 92%; inhibition at 0.01 µM (KRas^G12C): 95%; inhibition at 0.01 µM (KRas^G13D): 94%; inhibition at 0.01 µM (KRas^G12A): 86%
C#Cc1c(F)ccc2cc(O)cc(-c3ncc4c(N5CCC[C@@](C)(O)C5)nc(OC[C@@]56CCCN5[C@@H](CO)CC6)nc4c3F)c12 [Example 809, (R)-1-(7-(8-ethynyl-7-fluoro-3-hydroxynaphthalen-1-yl)-8-fluoro-2-(((3R,7aS)-3-(hydroxymethyl)tetrahydro-1H-pyrrolizin-7a(5H)-yl)methoxy)pyrido[4,3-d]pyrimidin-4-yl)-3-methylpiperidin-3-ol] | 5 nM | 1510 nM | 918 nM | 809 nM | 3 nM | 5 nM | 5 nM | 4 nM | 4 nM | 3 nM | 228 nM | 871 nM | > 10000 nM | 3 nM | 2560 nM | 57 nM | 5 nM |  |  |  | 
C[C@@]1(O)CCCN(c2nc(OCC34CCCN3CCC4)nc3c(F)c(-c4c(C5CC5)c(Cl)cc5[nH]ncc45)ncc23)C1 [Example 876, (3R)-1-(7-(6-chloro-5-cyclopropyl-1H-indazol-4-yl)-8-fluoro-2-((tetrahydro-1H-pyrrolizin-7a(5H)-yl)methoxy)pyrido[4,3-d]pyrimidin-4-yl)-3-methylpiperidin-3-ol] | 17 nM | 1130 nM | 561 nM | 1560 nM | 10 nM | 22 nM | 18 nM | 13 nM | 11 nM | 9 nM | 234 nM | 661 nM | > 10000 nM | 10 nM | 1040 nM | 112 nM | 14 nM |  |  |  | 

Continued, in another order:

IC50 (KRas^WT) | IC50 [1] | IC50 [2] | IC50 [3] | IC50 (KRas^G12D) | IC50 (KRas^G12R) | IC50 (KRas^Q61H) | IC50 (KRas^G12S) | IC50 (KRas^G12V) | IC50 (KRas^G12C) | IC50 [4] | IC50 [5] | IC50 [6] | IC50 (KRas^G13D) | IC50 [7] | IC50 [8] | IC50 (KRas^G12A) | SMILES | inhibition at 0.1 µM [1] | inhibition at 0.1 µM [4] | inhibition at 0.1 µM [7] | further results
< 2 nM | 397 nM | 184 nM | 275 nM | 3 nM | < 2 nM | < 2 nM | < 2 nM | < 2 nM | < 2 nM | 38 nM | 434 nM | > 10000 nM | < 2 nM | 708 nM | 22 nM | < 2 nM | CCc1cccc2cc3[nH]ncc3c(-c3ncc4c(N5CCCC6(C5)NC(=O)NC6=O)nc(OC[C@@]56CCCN5C[C@H](F)C6)nc4c3F)c12 (stereo partly drawn) [Example 768, 7-(7-(5-ethyl-1H-benzo[f]indazol-4-yl)-8-fluoro-2-(((2R,7aS)-2-fluorohexahydro-1H-pyrrolizin-7a-yl)methoxy)pyrido[4,3-d]pyrimidin-4-yl)-1,3,7-triazaspiro[4.5]decane-2,4-dione] | 8% | 59% | 30% | inhibition at 0.1 µM [2]: 23%
< 2 nM | 1240 nM | 661 nM | 567 nM | < 2 nM | < 2 nM | < 2 nM | < 2 nM | < 2 nM | < 2 nM | 88 nM | 510 nM | > 10000 nM | < 2 nM | 2190 nM | 226 nM | < 2 nM | CCc1cccc2cc3[nH]ncc3c(-c3ncc4c(N5CCCC6(CNC(=O)N6)C5)nc(OC[C@@]56CCCN5C[C@H](F)C6)nc4c3F)c12 (stereo partly drawn) [Example 769, 7-(7-(5-ethyl-1H-benzo[f]indazol-4-yl)-8-fluoro-2-(((2R,7aS)-2-fluorohexahydro-1H-pyrrolizin-7a-yl)methoxy)pyrido[4,3-d]pyrimidin-4-yl)-1,3,7-triazaspiro[4.5]decan-2-one] |  |  |  | 
15 nM | 3440 nM | 1720 nM | 654 nM | < 2 nM | 7 nM | 21 nM | 6 nM | 3 nM | 6 nM | 258 nM | 444 nM | > 10000 nM | 25 nM | 3330 nM | 5 nM | 12 nM | CCc1cccc2cc3[nH]ncc3c(-c3ncc4c(N5CCCn6nc(C(=O)N(C)C)cc6C5)nc(OC[C@@]56CCCN5C[C@H](F)C6)nc4c3F)c12 [Example 770, 5-(7-(5-ethyl-1H-benzo[f]indazol-4-yl)-8-fluoro-2-(((2R,7aS)-2-fluorohexahydro-1H-pyrrolizin-7a-yl)methoxy)pyrido[4,3-d]pyrimidin-4-yl)-N,N-dimethyl-5,6,7,8-tetrahydro-4H-pyrazolo[1,5-a][1,4]diazepine-2-carboxamide] | 10% | 12% | -1% | inhibition at 0.1 µM [2]: -1%
 | 75 nM | 29 nM | 61 nM | 2 nM | 4 nM |  |  | 2 nM |  | 18 nM | 18 nM | 9010 nM |  | 18 nM | 16 nM |  | CCc1c(F)ccc2cc3[nH]ncc3c(-c3ncc4c(N5CCC[C@@](C)(O)C5)nc(OC[C@@]56CCCN5C[C@H](F)C6)nc4c3F)c12 [Example 776, (3R)-1-(7-(5-ethyl-6-fluoro-1H-benzo[f]indazol-4-yl)-8-fluoro-2-(((2R,7aS)-2-fluorohexahydro-1H-pyrrolizin-7a-yl)methoxy)pyrido[4,3-d]pyrimidin-4-yl)-3-methylpiperidin-3-ol] |  | 84% | 60% | inhibition at 0.01 µM (KRas^WT): 78%; inhibition at 0.01 µM (KRas^Q61H): 80%; inhibition at 0.01 µM (KRas^G12S): 83%; inhibition at 0.01 µM (KRas^G12C): 85%; inhibition at 0.01 µM (KRas^G13D): 84%; inhibition at 0.01 µM (KRas^G12A): 80%
